#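 96-well plates; 48 h exposure; 5 concentrations. Endpoints by linear interpolation between flanking doses. Not reached: highest tested concentration assigned. Here, GI50 denotes the concentration required for 50% inhibition of growth.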 The source made the active and inactive calls. Cut-off read from the data, not from the text of the source: active = GI50 up to about 1.1 µM and inactive = higher.
# Columns and labels:
# Test in all cases: DTP human tumour cell line panel, 48 h
# [1] = system: 786-0
# [2] = system: A498
# [3] = system: A549
# [4] = system: ACHN
# [5] = system: CAKI-1
# [6] = system: CCRF-CEM
# [7] = system: COLO 205
# [8] = system: DLD-1
# [9] = system: DMS-114
# [10] = system: DMS-273
# [11] = system: EKVX
# [12] = system: HCC 2998
# [13] = system: HCT-116
# [14] = system: HCT-15
# [15] = system: HL-60
# [16] = system: HOP-18
# [17] = system: HOP-62
# [18] = system: HOP-92
# [19] = system: HT-29
# [20] = system: IGROV-1
# [21] = system: K562
# [22] = system: KM-20L2
# [23] = system: KM12
# [24] = system: LOX IMVI
# [25] = system: LXFL 529
# [26] = system: M14
# [27] = system: M19-MEL
# [28] = system: MOLT-4
# [29] = system: Malme-3M
# [30] = system: NCI-H226
# [31] = system: NCI-H23
# [32] = system: NCI-H460
# [33] = system: NCI-H522
# [34] = system: OVCAR-3
# [35] = system: OVCAR-4
# [36] = system: OVCAR-5
# [37] = system: OVCAR-8
# [38] = system: RPMI-8226
# [39] = system: RXF 393
# [40] = system: RXF 631
# [41] = system: SF-268
# [42] = system: SF-295
# [43] = system: SF-539
# [44] = system: SK-MEL-28
# [45] = system: SK-MEL-2
# [46] = system: SK-MEL-5
# [47] = system: SK-OV-3
# [48] = system: SN12C
# [49] = system: SNB-19
# [50] = system: SNB-75
# [51] = system: SNB-78
# [52] = system: SR
# [53] = system: SW-620
# [54] = system: TK-10
# [55] = system: U-251
# [56] = system: UACC-257
# [57] = system: UACC-62
# [58] = system: UO-31
# [59] = system: BT-549
# [60] = system: DU-145
# [61] = system: Hs-578T
# [62] = system: MCF7
# [63] = system: MDA-MB-231
# [64] = system: MDA-MB-435
# [65] = system: MDA-N
# [66] = system: NCI/ADR-RES
# [67] = system: PC-3
# [68] = system: T47D
# [69] = system: XF498
smiles,measurement,setting,value
CCOC(=O)Nc1ccc(S(=O)(=O)OC)cc1.CCOC(=O)Nc1ccc(S(=O)(=O)OC)cc1.NC(=O)NCCO,GI50,[1],19900 nM (inactive)
same,GI50,[2],> 50000 nM (inactive)
same,GI50,[3],> 50000 nM (inactive)
same,GI50,[4],> 50000 nM (inactive)
same,GI50,[5],48600 nM (inactive)
same,GI50,[6],23300 nM (inactive)
same,GI50,[7],30900 nM (inactive)
same,GI50,[8],7080 nM (inactive)
same,GI50,[9],22100 nM (inactive)
same,GI50,[10],29200 nM (inactive)
same,GI50,[11],> 50000 nM (inactive)
same,GI50,[12],> 50000 nM (inactive)
same,GI50,[13],21300 nM (inactive)
same,GI50,[14],21600 nM
same,GI50,[15],16700 nM (inactive)
same,GI50,[16],49400 nM (inactive)
same,GI50,[17],23600 nM (inactive)
same,GI50,[18],> 50000 nM (inactive)
same,GI50,[19],31800 nM (inactive)
same,GI50,[20],> 50000 nM (inactive)
same,GI50,[21],16100 nM (inactive)
same,GI50,[22],> 50000 nM (inactive)
same,GI50,[23],> 50000 nM (inactive)
same,GI50,[24],21300 nM (inactive)
same,GI50,[25],29400 nM (inactive)
same,GI50,[26],42400 nM (inactive)
same,GI50,[27],29900 nM (inactive)
same,GI50,[28],> 50000 nM (inactive)
same,GI50,[29],> 50000 nM (inactive)
same,GI50,[30],> 50000 nM (inactive)
same,GI50,[31],> 50000 nM (inactive)
same,GI50,[32],22100 nM (inactive)
same,GI50,[33],> 50000 nM (inactive)
same,GI50,[34],> 50000 nM (inactive)
same,GI50,[35],41900 nM (inactive)
same,GI50,[36],> 50000 nM (inactive)
same,GI50,[37],42300 nM (inactive)
same,GI50,[38],17100 nM (inactive)
same,GI50,[39],> 50000 nM (inactive)
same,GI50,[40],46500 nM (inactive)
same,GI50,[41],> 50000 nM (inactive)
same,GI50,[42],> 50000 nM (inactive)
same,GI50,[43],21200 nM (inactive)
same,GI50,[44],> 50000 nM (inactive)
same,GI50,[45],> 50000 nM (inactive)
same,GI50,[46],> 50000 nM (inactive)
same,GI50,[47],> 50000 nM (inactive)
same,GI50,[48],> 50000 nM (inactive)
same,GI50,[49],> 50000 nM (inactive)
same,GI50,[50],> 50000 nM (inactive)
same,GI50,[51],> 50000 nM (inactive)
same,GI50,[52],> 50000 nM (inactive)
same,GI50,[53],28800 nM (inactive)
same,GI50,[54],48000 nM (inactive)
same,GI50,[55],23000 nM (inactive)
same,GI50,[56],29600 nM (inactive)
same,GI50,[57],> 50000 nM (inactive)
same,GI50,[58],> 50000 nM (inactive)
COc1c(CC=C(C)C)c(O)c(C(CC(C)C)c2c(O)c(CC=C(C)C)c(O)c(C(C)=O)c2O)c(O)c1C(C)=O (stereo not given),GI50,[1],1630 nM (inactive)
same,GI50,[2],84.3 nM (active)
same,GI50,[3],1800 nM (inactive)
same,GI50,[4],1100 nM (active)
same,GI50,[59],1620 nM (inactive)
same,GI50,[5],1210 nM (inactive)
same,GI50,[6],278 nM (active)
same,GI50,[7],564 nM (active)
same,GI50,[8],380 nM (active)
same,GI50,[9],190 nM (active)
same,GI50,[10],333 nM (active)
same,GI50,[60],2320 nM (inactive)
same,GI50,[11],1040 nM (active)
same,GI50,[12],537 nM (active)
same,GI50,[13],325 nM (active)
same,GI50,[14],400 nM
same,GI50,[15],767 nM (active)
same,GI50,[16],551 nM (active)
same,GI50,[17],1400 nM (inactive)
same,GI50,[18],191 nM (active)
same,GI50,[19],723 nM (active)
same,GI50,[61],1070 nM (active)
same,GI50,[20],1700 nM (inactive)
same,GI50,[21],290 nM (active)
same,GI50,[23],998 nM (active)
same,GI50,[24],1570 nM (inactive)
same,GI50,[26],1430 nM (inactive)
same,GI50,[27],1430 nM (inactive)
same,GI50,[62],385 nM (active)
same,GI50,[63],1640 nM (inactive)
same,GI50,[64],1940 nM (inactive)
same,GI50,[65],2160 nM (inactive)
same,GI50,[28],644 nM (active)
same,GI50,[29],638 nM (active)
same,GI50,[30],1240 nM (inactive)
same,GI50,[31],275 nM (active)
same,GI50,[32],589 nM (active)
same,GI50,[33],200 nM (active)
same,GI50,[66],729 nM (active)
same,GI50,[34],1150 nM (inactive)
same,GI50,[35],1440 nM (inactive)
same,GI50,[36],4900 nM (inactive)
same,GI50,[37],385 nM (active)
same,GI50,[67],305 nM (active)
same,GI50,[38],419 nM (active)
same,GI50,[39],427 nM (active)
same,GI50,[40],425 nM (active)
same,GI50,[41],323 nM (active)
same,GI50,[42],521 nM (active)
same,GI50,[43],1160 nM (inactive)
same,GI50,[44],695 nM (active)
same,GI50,[45],504 nM (active)
same,GI50,[46],482 nM (active)
same,GI50,[47],2080 nM (inactive)
same,GI50,[48],469 nM (active)
same,GI50,[49],1150 nM (inactive)
same,GI50,[50],1690 nM (inactive)
same,GI50,[51],1700 nM (inactive)
same,GI50,[52],1100 nM (active)
same,GI50,[53],480 nM (active)
same,GI50,[68],385 nM (active)
same,GI50,[54],1030 nM (active)
same,GI50,[55],703 nM (active)
same,GI50,[56],1450 nM (inactive)
same,GI50,[57],527 nM (active)
same,GI50,[58],3080 nM (inactive)
same,GI50,[69],596 nM (active)
